Measurements from PMC4147353 (Nature Communications, 2014).
Each block holds one compound with its values, some of them ahead of it.

Tests used:
USP7 = USP7 (Homo sapiens, UniProt Q93009); assay: MALDI-TOF DUB assay, inhibitor IC50 on USP7; type: biochemical; conditions: for potency for USP7 relative to the second most sensitive DUB on the panel (USP21): from IC50 values
panel of 32 DUBs = type: biochemical, human
[1] = type: physicochemical; conditions: 1 mM DTT or 0.5 mM TCEP, 30 °C for 1 h, DUB assay conditions; data not shown

USP7, sequence (Q93009 whole entry): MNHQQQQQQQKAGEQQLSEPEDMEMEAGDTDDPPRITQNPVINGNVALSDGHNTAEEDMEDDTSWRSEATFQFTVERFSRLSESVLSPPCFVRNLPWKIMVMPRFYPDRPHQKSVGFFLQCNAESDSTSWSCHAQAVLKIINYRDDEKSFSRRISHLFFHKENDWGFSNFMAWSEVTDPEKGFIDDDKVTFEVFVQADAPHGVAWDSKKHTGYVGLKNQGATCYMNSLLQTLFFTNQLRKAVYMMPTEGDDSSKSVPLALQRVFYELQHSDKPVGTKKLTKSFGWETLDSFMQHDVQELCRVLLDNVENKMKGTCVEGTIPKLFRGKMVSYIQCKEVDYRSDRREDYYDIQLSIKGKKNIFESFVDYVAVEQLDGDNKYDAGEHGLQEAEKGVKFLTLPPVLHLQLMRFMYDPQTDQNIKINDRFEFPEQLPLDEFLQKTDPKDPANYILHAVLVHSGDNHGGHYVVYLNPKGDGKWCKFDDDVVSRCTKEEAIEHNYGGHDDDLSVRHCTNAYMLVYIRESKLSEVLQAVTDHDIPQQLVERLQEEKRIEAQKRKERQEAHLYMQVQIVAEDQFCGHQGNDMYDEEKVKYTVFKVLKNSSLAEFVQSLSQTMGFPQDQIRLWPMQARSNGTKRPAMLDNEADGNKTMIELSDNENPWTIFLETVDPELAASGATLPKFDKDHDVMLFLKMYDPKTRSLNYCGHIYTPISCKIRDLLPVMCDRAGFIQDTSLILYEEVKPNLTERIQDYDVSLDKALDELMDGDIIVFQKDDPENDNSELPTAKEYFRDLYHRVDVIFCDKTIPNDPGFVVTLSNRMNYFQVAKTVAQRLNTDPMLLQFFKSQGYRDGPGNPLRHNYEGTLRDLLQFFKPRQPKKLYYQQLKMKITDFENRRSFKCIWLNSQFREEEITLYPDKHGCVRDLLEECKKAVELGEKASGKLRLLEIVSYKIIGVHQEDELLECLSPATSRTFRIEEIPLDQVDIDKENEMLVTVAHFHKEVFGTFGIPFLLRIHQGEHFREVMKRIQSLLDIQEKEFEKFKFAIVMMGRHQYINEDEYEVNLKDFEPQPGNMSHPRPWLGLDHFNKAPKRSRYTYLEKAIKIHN

potency for USP7 relative to the second most sensitive DUB on the panel (USP21) (USP7): five- to eightfold higher potency
Structure (SMILES): Cc1ccc(S(=O)(=O)/C=C/C#N)cc1 [BAY 11-7082]

Structure (SMILES): N#Cc1nc2c(nc1C#N)-c1ccc(Cl)cc1C2=O [HBX 41,108]
number of DUBs inhibited more than 70% (panel of 32 DUBs; of the 32 DUBs tested, at 5 μM): 25

potency for USP7 relative to the second most sensitive DUB on the panel (USP21) (USP7): five- to eightfold higher potency
potency for USP7 relative to HBX 41,108 (USP7; ratio of IC50 values, 0.08 μM versus 5.97 μM): 70 fold
Structure (SMILES): Cc1ccc(S(=O)(=O)c2ccc([N+](=O)[O-])o2)cc1 [NSC 697923]

Structure (SMILES): N#CSc1cc(SC#N)c(N)nc1N [PR-619]
number of DUBs inhibited (panel of 32 DUBs; of the 32 tested DUBs): 27

Structure (SMILES): CCC[C@H](NC(=O)/C(C#N)=C/c1cccc(Br)n1)c1ccccc1 [WP1130]
reaction with reducing agents DTT and TCEP [1]: significantly reacted with both DTT and TCEP
